The values below come from patent publication US20240294541A1, “COMPOUNDS CONSTITUTING C20-MODIFIED SALINOMYCIN DERIVATIVES, A METHOD FOR OBTAINING THE SAME, A COMPOSITION CONTAINING THE SAME AND A USE OF SAID COMPOUNDS” (FILECLO SPOLKA Z OGRANICZONA ODPOWIEDZIALNOSCIA, priority 2021, published 2024).

Format in all cases: cell-based
Assay [1] has as its system PLC/PRF/5 (human liver cancer). Put plainly: cells. The following applies: for IC50: Homo sapiens, PLC-PRF-5, 72 h with compound, SRB, n/a = non-active compound, read-out: PLC/PRF/5 IC50; for PLC/PRF/5 SI: selectivity coefficient vs normal BALB/3T3 cells.
Assay [2] has as its system PFSK-1 (malignant primitive neuroectodermal tumour). Put plainly: In vitro cytotoxicity, SRB assay, PFSK-1. The following applies: for IC50: Homo sapiens, PFSK-1, 72 h with compound, SRB, n/a = non-active compound, read-out: PFSK-1 IC50; for PFSK-1 SI: selectivity coefficient vs normal BALB/3T3 cells.
The subject of assay [3] is A375 (human melanoma). Put plainly: In vitro cytotoxicity, SRB assay, A375. The following applies: for IC50: Homo sapiens, A-375, 72 h with compound, SRB, n/a = non-active compound, read-out: A375 IC50; for A375 SI: selectivity coefficient vs normal BALB/3T3 cells.
The test system of assay [4] is NCI-H23 (human lung cancer). Description: In vitro cytotoxicity, SRB assay, NCI-H23. The following applies: for IC50: Homo sapiens, NCI-H23, 72 h with compound, SRB, n/a = non-active compound, read-out: NCI-H23 IC50; for NCI-H23 SI: selectivity coefficient vs normal BALB/3T3 cells.
Assay [5] concerns KG-1 (human acute myeloid leukaemia). Put plainly: In vitro cytotoxicity, MTT assay, KG-1. The following applies: for IC50: Homo sapiens, 72 h with compound, MTT, n/a = non-active compound; for KG-1 SI: selectivity coefficient vs normal BALB/3T3 cells.
Assay [6] deals with A2780Cis (cisplatin-resistant human ovarian cancer). Put plainly: In vitro cytotoxicity, SRB assay, A2780Cis. The following applies: for IC50: Homo sapiens, A2780cis, 72 h, read-out: A2780Cis IC50 (nM).
Assay [7] concerns MIA PaCa-2 (human pancreatic cancer). Description: cells. The following applies: for IC50: Homo sapiens, MIA PaCa-2, 72 h with compound, SRB, n/a = non-active compound, read-out: MIA PaCa-2 IC50; for MIA PaCa-2 SI: selectivity coefficient vs normal BALB/3T3 cells.
In assay [8] the test system is Hs294T (human melanoma). Description: cells. The following applies: for IC50: Homo sapiens, Hs 294T, 72 h with compound, SRB, n/a = non-active compound, read-out: Hs294T IC50; for Hs294T SI: selectivity coefficient vs normal BALB/3T3 cells.
Assay [9] concerns A2780 (human ovarian cancer). Description: In vitro cytotoxicity, SRB assay, A2780. The following applies: for IC50: Homo sapiens, A2780, 72 h with compound, SRB, n/a = non-active compound, read-out: A2780 IC50; for A2780 SI: selectivity coefficient vs normal BALB/3T3 cells.
Assay [10] relates to BALB/3T3 (normal mouse fibroblasts). Description: In vitro cytotoxicity, SRB assay, normal BALB/3T3 fibroblasts. The following applies: Mus musculus, BALB/3T3; normal cells; 72 h with compound, SRB; n/a = non-active compound; read-out: BALB/3T3 IC50.
The subject of assay [11] is SNU-16 (human gastric cancer). Description: cells. The following applies: for IC50: Homo sapiens, SNU-16, 72 h with compound, MTT, n/a = non-active compound, read-out: SNU-16 IC50; for SNU-16 SI: selectivity coefficient vs normal BALB/3T3 cells.

Turning to `CC[C@@H](C(=O)[C@@H](C)[C@@H](O)[C@H](C)[C@@H]1O[C@@H]([C@@H](CC)C(=O)O)CC[C@@H]1C)[C@H]1O[C@]2(C=C[C@@H](NC(=S)Nc3cc(C(F)(F)F)cc(C(F)(F)F)c3)[C@]3(CC[C@@](C)([C@H]4CC[C@](O)(CC)[C@H](C)O4)O3)O2)[C@H](C)C[C@@H]1C` [FLC-00348-1], in assay [1], the IC50 amounted to 1150 nM and the “PLC/PRF/5 SI” value was 2.5. In assay [2], the IC50 was 379 nM and the “PFSK-1 SI” value is on record as 7.4. In addition, in assay [3], the IC50 worked out at 2590 nM and the “A375 SI” value came to 1.1. Moreover, in assay [4], the IC50 came out at 972 nM and the “NCI-H23 SI” value was found to be 2.9. In addition, in [5], the IC50 amounted to 188 nM and the “KG-1 SI” value was 15.0. In assay [6], the “A2780Cis RI” value is 0.8, the “A2780Cis SI” value is 60.6 and the IC50 is 46.6 nM. In addition, in [7], the IC50 worked out at 2320 nM and the “MIA PaCa-2 SI” value is on record as 1.2. Besides, in assay [8], the IC50 stood at 3320 nM and the “Hs294T SI” value worked out at 0.9. Further, in assay [9], the IC50 was 57 nM and the “A2780 SI” value turned out to be 49.6. Moreover, the IC50 in [10] was determined as 2830 nM. For the same compound, in [11], the IC50 was 537 nM and the “SNU-16 SI” value was found to be 5.3.
Turning to `CCCNC(=S)N[C@@H]1C=C[C@]2(O[C@H]([C@@H](CC)C(=O)[C@@H](C)[C@@H](O)[C@H](C)[C@@H]3O[C@@H]([C@@H](CC)C(=O)O)CC[C@@H]3C)[C@@H](C)C[C@H]2C)O[C@@]12CC[C@@](C)([C@H]1CC[C@](O)(CC)[C@H](C)O1)O2` [FLC-00349-1], in assay [1], the IC50 came to 24.1 nM and the “PLC/PRF/5 SI” value is 2.8. In assay [2], the IC50 was 27.6 nM and the “PFSK-1 SI” value is on record as 2.4. Moreover, in [3], the IC50 was 113 nM and the “A375 SI” value is listed as 0.6. Besides, in assay [4], the IC50 is 75.2 nM and the “NCI-H23 SI” value is recorded as 0.9. In assay [5], the IC50 is 24.7 nM and the “KG-1 SI” value turned out to be 2.7. Besides, in assay [6], the “A2780Cis RI” value is 1.0, the “A2780Cis SI” value is on record as 14.8 and the IC50 came to 4.56 nM. In assay [7], the IC50 worked out at 66.3 nM and the “MIA PaCa-2 SI” value worked out at 1.0. In addition, in [8], the IC50 is 108 nM and the “Hs294T SI” value turned out to be 0.6. In assay [9], the IC50 is 4.5 nM and the “A2780 SI” value came to 15.0. For the same compound, in assay [10], the IC50 was found to be 67.5 nM. Further, in [11], the IC50 was 20.7 nM and the “SNU-16 SI” value came to 3.3.
For `CCCCCCCNC(=O)N[C@@H]1C=C[C@]2(O[C@H]([C@@H](CC)C(=O)[C@@H](C)[C@@H](O)[C@H](C)[C@@H]3O[C@@H]([C@@H](CC)C(=O)O)CC[C@@H]3C)[C@@H](C)C[C@H]2C)O[C@@]12CC[C@@](C)([C@H]1CC[C@](O)(CC)[C@H](C)O1)O2` [FLC-00350-1], in [1], the IC50 was 23 nM and the “PLC/PRF/5 SI” value was 4.5. In assay [2], the IC50 was determined as 7.25 nM and the “PFSK-1 SI” value amounted to 14.2. Further, in assay [3], the IC50 came out at 251 nM and the “A375 SI” value was determined as 0.4. Further, in assay [4], the IC50 is 101 nM and the “NCI-H23 SI” value is 1.0. In addition, in assay [5], the IC50 is 35.9 nM and the “KG-1 SI” value was found to be 2.9. Besides, in assay [6], the “A2780Cis RI” value is 0.9, the “A2780Cis SI” value was determined as 44.9 and the IC50 is 2.3 nM. In [7], the IC50 was 37.4 nM and the “MIA PaCa-2 SI” value is given as 2.8. In assay [8], the IC50 stood at 419 nM and the “Hs294T SI” value came to 0.2. For the same compound, in assay [9], the IC50 was 2.46 nM and the “A2780 SI” value is on record as 42.0. The IC50 in [10] worked out at 103 nM. Besides, in [11], the IC50 amounted to 18.2 nM and the “SNU-16 SI” value worked out at 5.7.
